Measured values published in patent US20230158159A1, “CHIMERIC DEGRADERS OF CYCLIN-DEPENDENT KINASE 9 AND USES THEREOF” (Massachusetts Institute of Technology, priority 2020, published 2023).

What was measured:
[1] = system: Cyclin T; test: Cyclin T protein levels, Western blot, MOLT-4 cells; type: cell-based, human; conditions: MOLT-4 leukemia cells, 10 μM, 8 h treatment time
Procedure: Compounds 4 and 5 (KI-ARv-03-D09 and -D10) incorporate such bi-aryl extensions and were therefore tested for their ability to degrade CDK9 and/or its associated cyclin T. In addition, the corresponding molecules KB-0742-D01 and -D02 which comprise the […] warhead and bi-aryl extensions were evaluated.

[2] = biological target: T1, CDK9 (Homo sapiens, UniProt P50750); test: CDK9 degradation assay, Western blot, MOLT4 cells; type: cell-based; parameters: endogenous in cells; host or cells: MOLT4 (MOLT-4); conditions: for CDK9 protein levels: MOLT-4 leukemia cells, 8 h treatment time; for reduction of CDK9 protein levels: 1 μM, compared to DMSO and parent compound KI-ARv3; for concentration at which the concentration dependent decrease of CDK9 levels starts: dose range 10 nM-10 μM
Procedure: Efficiencies were measured by monitoring their impact on CDK9 itself as well as downstream targets of CDK9 phosphorylation such as AR and Pol II.

[3] = biological target: T1, CDK9; test: CDK9 degradation assay, Western blot, MV-4-11 cells; type: cell-based; parameters: endogenous in cells
Procedure: (§1) FIGS. 8A-C show evaluation of KI-ARv3-D07 and -08 in MV-4-11 (FIG. 8A) and Rh-30 (FIG. 8C) cells as well as side by side comparison of both cell lines (FIG. 8B). […] FIG. 8B treatment time is 8 hr.
(§2) The effect of KI-ARv3-D07 and -08 on impacting CDK9 levels in the additional cell lineages MV-4-11 (leukemia cell line) and the Rh-30 (rhabdomyosarcoma cell line) at 6 h and 8 h treatment times (FIG. 8) was also evaluated. […] In Rh-30 no changes in CDK9 levels were detected at any compound concentration (10 nM, 100 nM, 500 nM, 1 μM, 10 μM) at either 6 h or 8 h treatment time (FIGS. 8B and 8C).

[4] = biological target: T1, CDK9; test: CDK9 degradation assay, Western blot, 22Rv1 cells; type: cell-based; parameters: endogenous in cells; host or cells: 22Rv1; conditions: for reduction of CDK9 levels / degradation of CDK9: 10 nM-10 μM
Procedure: (§3) Compounds were evaluated in ARv7 positive 22Rv1 cells in order to assess their potential to degrade CDK9 and its associated downstream phosphorylation targets Pol II as well as AR and related splice variants (FIGS. 6 and 7).

[5] = biological target: T1, CDK9; test: CDK9 degradation assay, Western blot, Rh-30 cells; type: cell-based; parameters: endogenous in cells; host or cells: 22Rv1; conditions: for changes in CDK9 levels: Rh-30 cells, 10 nM, 100 nM, 500 nM, 1 μM, 10 μM, 6 h or 8 h
Procedure: as §1
FIGS. 9A-D show evaluation of KI-ARv3-D11 and -D18 in 22Rv1 (FIG. 9A, 16 h treatment time), MOLT-4 (FIG. 9B, 7 h treatment time), and Rh-30 (FIGS. 9C and 9D, 16 h treatment time) cell lines.
as §2

[6] = system: AR; test: AR and AR splice variant protein levels, Western blot, 22Rv1 cells; type: cell-based; conditions: FIG. 7 (24 hours, 10 nM-10 μM)
Procedure: as §3

[7] = system: Pol II; test: Pol II protein levels, Western blot, 22Rv1 cells; type: cell-based; conditions: FIG. 7 (24 hours, 10 nM-10 μM)
Procedure: as §3

[8] = MOLT4 cells, 1 μM and 5 μM, 6 hours, compared to DMSO
[9] = MOLT4 cells, low dose 1 μM, 24 hours

T1 sequence (P50750 whole entry): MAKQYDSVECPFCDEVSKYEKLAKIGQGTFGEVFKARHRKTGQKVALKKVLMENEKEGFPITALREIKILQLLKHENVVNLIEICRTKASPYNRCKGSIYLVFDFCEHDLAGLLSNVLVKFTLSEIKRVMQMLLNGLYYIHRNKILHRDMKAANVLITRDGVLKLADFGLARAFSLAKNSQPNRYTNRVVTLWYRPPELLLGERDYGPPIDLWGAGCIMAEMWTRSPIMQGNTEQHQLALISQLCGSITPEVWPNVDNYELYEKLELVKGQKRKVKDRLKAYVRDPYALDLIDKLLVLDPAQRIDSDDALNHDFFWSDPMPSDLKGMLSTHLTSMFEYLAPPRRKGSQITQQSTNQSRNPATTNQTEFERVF
T1 sequence (O60563 whole entry partner): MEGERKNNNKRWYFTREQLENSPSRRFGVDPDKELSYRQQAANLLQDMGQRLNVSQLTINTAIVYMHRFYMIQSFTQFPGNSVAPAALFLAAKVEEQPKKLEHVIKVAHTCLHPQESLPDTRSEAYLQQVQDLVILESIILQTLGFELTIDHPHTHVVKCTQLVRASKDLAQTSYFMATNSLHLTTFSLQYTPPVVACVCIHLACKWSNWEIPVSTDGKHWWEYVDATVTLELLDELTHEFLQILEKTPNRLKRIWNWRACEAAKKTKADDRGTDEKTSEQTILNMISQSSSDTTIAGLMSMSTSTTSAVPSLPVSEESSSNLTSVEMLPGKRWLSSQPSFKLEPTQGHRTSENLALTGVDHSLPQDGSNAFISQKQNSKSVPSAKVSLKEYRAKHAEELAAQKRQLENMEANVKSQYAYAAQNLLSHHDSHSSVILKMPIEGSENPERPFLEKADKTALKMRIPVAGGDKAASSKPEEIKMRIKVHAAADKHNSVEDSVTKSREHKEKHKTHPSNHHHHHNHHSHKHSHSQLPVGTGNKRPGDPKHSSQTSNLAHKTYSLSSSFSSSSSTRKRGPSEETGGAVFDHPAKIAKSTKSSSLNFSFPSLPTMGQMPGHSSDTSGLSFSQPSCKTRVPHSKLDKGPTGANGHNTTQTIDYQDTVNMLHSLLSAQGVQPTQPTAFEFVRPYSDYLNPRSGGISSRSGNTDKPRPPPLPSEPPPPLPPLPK

SMILES | CDK9 protein levels ([2]; 10 μM) | Cyclin T protein levels [1] | reduction of CDK9 levels ([4]; 6 hours) | degradation of CDK9 ([4]; 24 hours) | changes in CDK9 levels [5] | CDK9 degradation [2, 8] | reduction of CDK9 protein levels ([2]; MOLT4 cells, 6 hours) | concentration at which the concentration dependent decrease of CDK9 levels starts ([2]; MOLT4 cells, 6 hours) [nM] | CDK9 degradation [2, 9] | further results
CCCc1cc(N[C@@H]2CC[C@@H](NC(=O)CCCCCCCCCNc3cccc4c3C(=O)N(C3CCC(=O)NC3=O)C4=O)C2)n2nccc2n1 (stereo partly drawn) [KI-ARv3-D07, 10-((2-(2,6-Dioxopiperidin-3-yl)-1,3-dioxoisoindolin-4-yl)amino)-N-((1R,3R)-3-((5-propylpyrazolo[1,5-a]pyrimidin-7-yl)amino)cyclopentyl)decanamide] | – | – | no significant reduction | not able to facilitate degradation of CDK9 | no changes | CDK9 degradation was observed | approximately 80% | 100 | reduced | changes in CDK9 levels ([3]; 6 h and 8 h, FIGS. 8A and 8B): did not lead to significant changes; degradation of CDK9 ([2]; MOLT4 cells, 24 hours, 10 μM): not demonstrated; hook effect on CDK9 degradation ([2]; MOLT4 cells, high dose 5 μM, 24 hours): hook effect
CCCc1cc(N[C@@H]2CC[C@@H](NC(=O)c3ccc(-c4ccc(CNc5cccc6c5C(=O)N(C5CCC(=O)NC5=O)C6=O)cc4)cc3)C2)n2nccc2n1 (stereo partly drawn) [KI-ARv3-D08, 4′-(((2-(2,6-dioxopiperidin-3-yl)-1,3-dioxoisoindolin-4-yl)amino)methyl)-N-((1R,3R)-3-((5-propylpyrazolo[1,5-a]pyrimidin-7-yl)amino)cyclopentyl)-[1,1′-biphenyl]-4-carboxamide] | – | – | subtle reduction | significant CDK9 degradation | no changes | CDK9 degradation was observed | approximately 80% | 100 | reduced | global AR protein levels [6]: no observed effect; global Pol II protein levels [7]: no observed effect; concentration at which reduction of CDK9 levels starts ([3]; 6 h and 8 h treatment time): 350 nM; reduction of CDK9 levels ([3]; 6 h and 8 h treatment time): approximately 60%; rescue experiments using proteasome inhibitor MG132 ([3]; FIG. 8A): reversible and proteasome dependent; concentration at which reduction in CDK9 protein levels starts ([4]; 6 hours): 500 nM; concentration at which significant CDK9 degradation starts ([4]; 24 hours): 100 nM; CDK9 degradation ([2]; MOLT4 cells, 24 hours, across the whole range 10 nM-10 μM): approx. 80%
CCCc1cc(N[C@@H]2CC[C@@H](NC(=O)c3ccc(-c4ccc(CN[C@H](C(=O)N5C[C@H](O)C[C@H]5C(=O)NCc5ccc(-c6scnc6C)cc5)C(C)(C)C)cc4)cc3)C2)n2nccc2n1 [KI-ARv3-D18, (2S,4R)-1-((S)-3,3-dimethyl-2-(((4′-(((1R,3R)-3-((5-propylpyrazolo[1,5-a]pyrimidin-7-yl)amino)cyclopentyl)carbamoyl)-[1,1′-biphenyl]-4-yl)methyl)amino)butanoyl)-4-hydroxy-N-(4-(4-methylthiazol-5-yl)benzyl)pyrrolidine-2-carboxamide] | – | – | – | – | – | – | – | – | – | reduction of CDK9 levels ([5]; 25 nM, FIG. 9D (Rh-30, 16 h treatment time)): approximately 80%

Continued, in another order:

CDK9 protein levels ([2]; 10 μM) | SMILES | Cyclin T protein levels [1] | reduction of CDK9 levels ([4]; 6 hours) | degradation of CDK9 ([4]; 24 hours) | changes in CDK9 levels [5] | CDK9 degradation [2, 8] | reduction of CDK9 protein levels ([2]; MOLT4 cells, 6 hours) | concentration at which the concentration dependent decrease of CDK9 levels starts ([2]; MOLT4 cells, 6 hours) [nM] | CDK9 degradation [2, 9] | further results
reduction in protein levels | CCC(CC)c1cc(N[C@H]2CC[C@H](NC(=O)c3ccc(-c4ccc(CN)cc4)cc3)C2)n2nccc2n1 [KB-0742-D02, 4′-(aminomethyl)-N-((1S,3S)-3-((5-(pentan-3-yl)pyrazolo[1,5-a]pyrimidin-7-yl)amino)cyclopentyl)-[1,1′-biphenyl]-4-carboxamide] | reduction in protein levels | – | – | – | – | – | – | – | –
reduction in protein levels | CCCc1cc(NC2CCC(NC(=O)c3ccc(-c4ccc(CN)cc4)cc3)C2)n2nccc2n1 (stereo not drawn) [KI-ARv3-D10, 4′-(aminomethyl)-N-(3-((5-propylpyrazolo[1,5-a]pyrimidin-7-yl)amino)cyclopentyl)-[1,1′-biphenyl]-4-carboxamide] | reduction in protein levels | – | – | – | – | – | – | – | –
